What was measured:
[1] = test system: carrageenan-induced thermal hyperalgesia; assay: rat carrageenan-induced inflammatory pain model (thermal hyperalgesia, hind paw withdrawal latency); type: in vivo, Male Wistar rats; conditions: for effect on induced hyperalgesia (withdrawal latency of ipsilateral, carrageenan-injected hind paw): 1 hour after administration
Experimental: Anti-migraine agents are commonly evaluated using the carrageenan-induced thermal hyperalgesia model (Bingham et al, Experimental Neurology, 167:65-73 (2001); Daher et al, Life Sciences, 76:2349-2359 (2005)).
Male Wistar rats (5/group) were used for the experiment. Withdrawal latency to escape from heat noxious stimuli on both hind paws of the rats was measured using TAIL FLICK 7360 (Ugo Basile, Italy). 1% Carageenan was injected into the right hind paw footpat of the rats. […] The withdrawal latency from heat stimuli of both hind paws of rats was measured 1, 3 and 5 hours after drug administration.
The effect of carrageenan was observed during all of the experiment period.

[2] = two hours after infusion; patients; cited from earlier work

| Structure (SMILES) | effect on induced hyperalgesia (withdrawal latency of ipsilateral, carrageenan-injected hind paw) ([1]; 3 mg/kg orally, FIG. 1) | effect on induced hyperalgesia (withdrawal latency of ipsilateral, carrageenan-injected hind paw) ([1]; 6 mg/kg orally, FIG. 1) | course of the anti-hyperalgesic effect (ipsilateral hind paw) ([1]; 3 and 6 mg/kg orally, 3 and 5 hours after administration, FIG. 1) | withdrawal latency of contralateral hind paw ([1]; orally, contralateral (left) hind paw, FIG. 2) | effect on motor function (suggested from unchanged contralateral latency) ([1]; rats, orally, FIG. 2) | efficacy rate for a sustained response [2] [%] |
| --- | --- | --- | --- | --- | --- | --- |
| N#Cc1ccccc1-c1cc(-c2ccccn2)cn(-c2ccccc2)c1=O [Compound A, 2-(2-oxo-1-phenyl-5-pyridin-2-yl-1,2-dihydropyridin-3-yl)benzonitrile] | inhibited induced hyperalgesia | inhibited induced hyperalgesia | declined | did not change the latency | did not affect motor function |  |
| O=C(O)[C@@H]1C[C@H]2C[C@@H](CCc3nn[nH]n3)CC[C@H]2CN1 [LY293558] |  |  |  |  |  | 69 |
| CNS(=O)(=O)Cc1ccc2[nH]cc(CCN(C)C)c2c1 [sumatriptan] |  |  |  |  |  | 87 |
